Tests used:
Type in all cases: in vivo
Zea mays = assay: Greenhouse post-emergence herbicidal activity on crop ZEAMX (corn, maize); parameters: key: 0 = no damage/normal growth, 100 = no emergence or complete destruction
From the text: (§1) The culture containers used were plastic flowerpots containing loamy sand with approximately 3.0% of humus as the substrate. The seeds of the test plants were sown separately for each species.
(§2) For the post-emergence treatment, the test plants were first grown to a height of 3 to 15 cm, depending on the plant habit, and only then treated with the active ingredients which had been suspended or emulsified in water. For this purpose, the test plants were either sown directly and grown in the same containers, or they were first grown separately as seedlings and transplanted into the test containers a few days prior to treatment.
(§3) Depending on the species, the plants were kept at 10-25° C. or 20-35° C., respectively.
(§4) The test period extended over 2 to 4 weeks. During this time, the plants were tended, and their response to the individual treatments was evaluated.
(§5) Evaluation was carried out using a scale from 0 to 100. 100 means no emergence of the plants, or complete destruction of at least the aerial moieties, and 0 means no damage, or normal course of growth. A good herbicidal activity is given at values of at least 70 and a very good herbicidal activity is given at values of at least 85.

Chenopodium album = assay: Greenhouse post-emergence herbicidal activity, CHEAL; settings: for pest or weed control at 250 g/ha: 0.25 kg/ha
From the text: as §1, §2, §3, §4, §5

Amaranthus retroflexus = assay: Greenhouse post-emergence herbicidal activity, AMARE; settings: AMARE; for pest or weed control at 250 g/ha: 0.25 kg/ha
From the text: as §1, §2, §3, §4, §5

Echinocloa crus-galli = assay: Greenhouse post-emergence herbicidal activity, ECHCG; settings: Echinochloa crus-galli, ECHCG; for pest or weed control at 250 g/ha: 0.25 kg/ha
From the text: as §1, §2, §3, §4, §5

Oryza sativa = assay: Greenhouse post-emergence herbicidal activity on crop ORYSA (rice)
From the text: as §1, §2, §3, §4, §5

[1] = crop ZEAMX (corn, maize), application rate 0.031 kg/ha
[2] = crop ZEAMX (corn, maize), application rate 0.063 kg/ha
[3] = crop ZEAMX (corn, maize), application rate 0.125 kg/ha
[4] = crop ORYSA (rice), application rate 0.031 kg/ha
[5] = crop ORYSA (rice), application rate 0.063 kg/ha
[6] = crop ORYSA (rice), application rate 0.125 kg/ha
[7] = ZEAMX (corn, crop), 0.031 kg/ha, scale 0 to 100
[8] = ZEAMX (corn, crop), 0.063 kg/ha, scale 0 to 100
[9] = ZEAMX (corn, crop), 0.125 kg/ha, scale 0 to 100
[10] = ZEAMX (corn, crop), 0.25 kg/ha, scale 0 to 100
[11] = ORYSA (rice, crop), 0.031 kg/ha, scale 0 to 100
[12] = ORYSA (rice, crop), 0.063 kg/ha, scale 0 to 100
[13] = ORYSA (rice, crop), 0.125 kg/ha, scale 0 to 100

SMILES	Herbicidal activity (Zea mays; [1])	Herbicidal activity (Zea mays; [2])	Herbicidal activity (Zea mays; [3])	pest or weed control at 31 g/ha (Chenopodium album; application rate 0.031 kg/ha) [%]	pest or weed control at 63 g/ha (Chenopodium album; application rate 0.063 kg/ha) [%]	pest or weed control at 125 g/ha (Chenopodium album; application rate 0.125 kg/ha) [%]	pest or weed control at 63 g/ha (Amaranthus retroflexus; application rate 0.063 kg/ha) [%]	pest or weed control at 125 g/ha (Amaranthus retroflexus; application rate 0.125 kg/ha) [%]	pest or weed control at 125 g/ha (Echinocloa crus-galli; application rate 0.125 kg/ha) [%]	Herbicidal activity (Oryza sativa; [4])	Herbicidal activity (Oryza sativa; [5])	Herbicidal activity (Oryza sativa; [6])	Herbicidal activity (Zea mays; [9])	pest or weed control at 31 g/ha (Chenopodium album; 0.031 kg/ha, scale 0 to 100) [%]	pest or weed control at 63 g/ha (Chenopodium album; 0.063 kg/ha, scale 0 to 100) [%]	pest or weed control at 125 g/ha (Chenopodium album; 0.125 kg/ha, scale 0 to 100) [%]	pest or weed control at 31 g/ha (Amaranthus retroflexus; 0.031 kg/ha, scale 0 to 100) [%]	pest or weed control at 63 g/ha (Amaranthus retroflexus; 0.063 kg/ha, scale 0 to 100) [%]	pest or weed control at 125 g/ha (Amaranthus retroflexus; 0.125 kg/ha, scale 0 to 100) [%]	pest or weed control at 125 g/ha (Echinocloa crus-galli; 0.125 kg/ha, scale 0 to 100) [%]	other results
CN(c1cccc(C2=C(O)c3ncccc3CS2(=O)=O)c1C(F)(F)F)S(C)(=O)=O [I-35, N-[3-(8-hydroxy-6,6-dioxo-5H-thiopyrano[4,3-b]pyridin-7-yl)-2-(trifluoromethyl)phenyl]-N-methyl-methanesulfonamide]	0	0	0	95	100	100	75	100	90	0	15	25									pest or weed control at 31 g/ha (Echinocloa crus-galli; application rate 0.031 kg/ha): 80%; pest or weed control at 63 g/ha (Echinocloa crus-galli; application rate 0.063 kg/ha): 90%
CS(=O)(=O)N(c1c(Cl)ccc(C2=C(O)c3ncccc3CS2(=O)=O)c1Cl)C1CC1 [I-24, N-cyclopropyl-N-[2,6-dichloro-3-(8-hydroxy-6,6-dioxo-5H-thiopyrano[4,3-b]pyridin-7-yl)phenyl]methanesulfonamide]													15	80	85	90	70	75	85	90	Herbicidal activity (Zea mays; [7]): 0; Herbicidal activity (Zea mays; [8]): 0; Herbicidal activity (Zea mays; [10]): 15; pest or weed control at 250 g/ha (Chenopodium album; scale 0 to 100): 98%; pest or weed control at 250 g/ha (Amaranthus retroflexus; scale 0 to 100): 90%; pest or weed control at 31 g/ha (Echinocloa crus-galli; 0.031 kg/ha, scale 0 to 100): 80%; pest or weed control at 63 g/ha (Echinocloa crus-galli; 0.063 kg/ha, scale 0 to 100): 85%; pest or weed control at 250 g/ha (Echinocloa crus-galli; scale 0 to 100): 95%; Herbicidal activity (Oryza sativa; [11]): 0; Herbicidal activity (Oryza sativa; [12]): 15; Herbicidal activity (Oryza sativa; [13]): 20
CN(c1cccc(C2=C(O)c3ncccc3C(C)(C)S2(=O)=O)c1C(F)(F)F)S(C)(=O)=O [I-36, N-[3-(8-hydroxy-5,5-dimethyl-6,6-dioxo-thiopyrano[4,3-b]pyridin-7-yl)-2-(trifluoromethyl)phenyl]-N-methyl-methanesulfonamide]	0	0	0	100	100	100	95	98	95	30	40	45									pest or weed control at 31 g/ha (Amaranthus retroflexus; application rate 0.031 kg/ha): 90%; pest or weed control at 31 g/ha (Echinocloa crus-galli; application rate 0.031 kg/ha): 70%; pest or weed control at 63 g/ha (Echinocloa crus-galli; application rate 0.063 kg/ha): 90%
CS(=O)(=O)Nc1c(Cl)ccc(C2=C(O)c3ncccc3CS2(=O)=O)c1Cl [I-1, N-[2,6-dichloro-3-(8-hydroxy-6,6-dioxo-5H-thiopyrano[4,3-b]pyridin-7-yl)phenyl]methanesulfonamide]													0			80			75	70	pest or weed control at 250 g/ha (Chenopodium album; scale 0 to 100): 95%; pest or weed control at 250 g/ha (Amaranthus retroflexus; scale 0 to 100): 80%; pest or weed control at 250 g/ha (Echinocloa crus-galli; scale 0 to 100): 80%; Herbicidal activity (Oryza sativa; [13]): 0; Herbicidal activity (Oryza sativa; ORYSA (rice, crop), 0.25 kg/ha, scale 0 to 100): 0
CN(c1cccc(C2=C(O)c3ncccc3C(C)(C)S2(=O)=O)c1S(C)(=O)=O)S(C)(=O)=O [I-34, N-[3-(8-hydroxy-5,5-dimethyl-6,6-dioxo-thiopyrano[4,3-b]pyridin-7-yl)-2-methylsulfonyl-phenyl]-N-methyl-methanesulfonamide]	0	0	15	95	98	100	95	98	70	0	0	0									pest or weed control at 31 g/ha (Amaranthus retroflexus; application rate 0.031 kg/ha): 90%
CCS(=O)(=O)N(C)c1c(Cl)ccc(C2=C(O)c3ncccc3CS2(=O)=O)c1Cl [I-18, N-[2,6-dichloro-3-(8-hydroxy-6,6-dioxo-5H-thiopyrano[4,3-b]pyridin-7-yl)phenyl]-N-methyl-ethanesulfonamide]													25	100	100	100	100	100	100	100	Herbicidal activity (Zea mays; [7]): 0; Herbicidal activity (Zea mays; [8]): 25; Herbicidal activity (Zea mays; [10]): 35; pest or weed control at 250 g/ha (Chenopodium album; scale 0 to 100): 100%; pest or weed control at 250 g/ha (Amaranthus retroflexus; scale 0 to 100): 100%; pest or weed control at 31 g/ha (Echinocloa crus-galli; 0.031 kg/ha, scale 0 to 100): 98%; pest or weed control at 63 g/ha (Echinocloa crus-galli; 0.063 kg/ha, scale 0 to 100): 100%; pest or weed control at 250 g/ha (Echinocloa crus-galli; scale 0 to 100): 100%; Herbicidal activity (Oryza sativa; [11]): 30
CN(c1c(Cl)ccc(C2=C(O)c3ncccc3CS2(=O)=O)c1Cl)S(=O)(=O)CC1CC1 [I-20, 1-cyclopropyl-N-[2,6-dichloro-3-(8-hydroxy-6,6-dioxo-5H-thiopyrano[4,3-b]pyridin-7-yl)phenyl]-N-methyl-methanesulfonamide]													0	100	100	100	90	90	100	100	Herbicidal activity (Zea mays; [7]): 0; Herbicidal activity (Zea mays; [8]): 0; pest or weed control at 31 g/ha (Echinocloa crus-galli; 0.031 kg/ha, scale 0 to 100): 100%; pest or weed control at 63 g/ha (Echinocloa crus-galli; 0.063 kg/ha, scale 0 to 100): 100%
CN(c1cccc(C2=C(O)c3ncccc3CS2(=O)=O)c1S(C)(=O)=O)S(C)(=O)=O [I-33, N-[3-(8-hydroxy-6,6-dioxo-5H-thiopyrano[4,3-b]pyridin-7-yl)-2-methylsulfonyl-phenyl]-N-methyl-methanesulfonamide]	0	0	0	85	98	90	85	90		0	20	10									
CN(c1cccc(C2=C(O)c3ncccc3CS2(=O)=O)c1Cl)S(C)(=O)=O [I-15, N-[2-chloro-3-(8-hydroxy-6,6-dioxo-5H-thiopyrano[4,3-b]pyridin-7-yl)phenyl]-N-methyl-methanesulfonamide]													35	90	98	98	75	85	90	98	pest or weed control at 31 g/ha (Echinocloa crus-galli; 0.031 kg/ha, scale 0 to 100): 85%; pest or weed control at 63 g/ha (Echinocloa crus-galli; 0.063 kg/ha, scale 0 to 100): 90%; Herbicidal activity (Oryza sativa; [11]): 0; Herbicidal activity (Oryza sativa; [12]): 0; Herbicidal activity (Oryza sativa; [13]): 20
CN(c1c(Cl)ccc(C2=C(O)c3ncc(F)cc3CS2(=O)=O)c1Cl)S(C)(=O)=O [I-37, N-[2,6-dichloro-3-(3-fluoro-8-hydroxy-6,6-dioxo-5H-thiopyrano[4,3-b]pyridin-7-yl)phenyl]-N-methyl-methanesulfonamide]	0	0		90	90	90			95	0	0	0									pest or weed control at 31 g/ha (Echinocloa crus-galli; application rate 0.031 kg/ha): 90%; pest or weed control at 63 g/ha (Echinocloa crus-galli; application rate 0.063 kg/ha): 90%
